The test addresses T1, VLA-4 (Homo sapiens, UniProt P05556+P13612).
T1 construct: endogenous in cells; host or cells: Jurkat cells
As to the kind of experiment: VLA-4 direct binding assay (VCAM-IgG alkaline phosphatase conjugate binding to Jurkat cells). As to conditions: Table 1, Structure-Activity; assay and unit inferred; read-out: Act. From the text:
A direct binding assay may also be employed to quantitate the inhibitory activity of the compounds of this invention. (“DBA”) In direct binding assays, for example, a VCAM-IgG fusion protein containing the first two immunoglobulin domains of VCAM (D1D2) attached above the hinge region of an IgG1 molecule (“VCAM 2D-IgG”), is conjugated to a marker enzyme, such as alkaline phosphatase (“AP”). The synthesis of this VCAM-IgG fusion is described in PCT publication WO 90/13300, the disclosure of which is herein incorporated by reference. The conjugation of that fusion to a marker enzyme can be achieved by cross-linking methods well-known in the art.
The VCAM-IgG enzyme conjugate is then placed in the wells of a multi-well filtration plate, such as that contained in the Millipore Multiscreen Assay System (Millipore Corp., Bedford, Mass.). Varying concentrations of the test inhibitory compound are then added to the wells followed by addition of VLA-4-expressing cells. The cells, compound and VCAM-IgG enzyme conjugate are mixed together and allowed to incubate at room temperature.
Following incubation, the wells are vacuum drained, leaving behind the cells and any bound VCAM. Quantitation of bound VCAM is determined by adding an appropriate calorimetric substrate for the enzyme conjugated to VCAM-IgG and determining the amount of reaction product. Decreased reaction product indicates increased binding inhibitory activity. The protocol is described more specifically below:
1. Block a 96 well Millipore Multiscreen Assay System filtration plate^1 with 200:l/well of blocking buffer (1×Phosphate Buffered Saline, 0.1%Tween 20, 1%BSA) for at least 1 hour at room temperature.
2. Drain the plate with the vacuum manifold, and wash with 200 μl/well of assay buffer (Tris Buffered Saline, 0.1% BSA, 2 mM glucose, 10 mM HEPES, pH 7.5) draining the plate in between. Repeat twice. Then blot the plate bottom on paper to remove excess buffer.
3. Prepare a 4 μg/ml VCAMIg-AP solution (Alkaline phosphatase coupled to VCAMIg) in assay buffer and filter with a 0.2:low protein binding syringe filter (Gelman Sciences #4454). From this stock, prepare a 0.4 μg/ml working solution of VCAMIg-AP in assay buffer. Add 25:l of 0.4 μg/ml VCAMIg-AP to every well.
5. Prepare dilutions of compounds to be tested in assay buffer. Concentrations should be 4× the desired final concentration and run in triplicate. Add 25 μl of the compound dilutions to designated wells.
7. Jurkat cells are centrifuged to remove cell culture media and washed once in assay buffer. Resuspend the washed Jurkat cells to a concentration of 8×10^6/ml in assay buffer containing 2 mM MnCl2. Pipeting the mixture up and down to ensure a uniform cell suspension. Add 50:l of cell suspension to each well except the NSB wells.
8. Gently tap the sides of the plate to mix well contents. Incubate the plate for 60 minutes at room temperature (RT).
9. Place the plate on the vacuum manifold to drain the well contents. Wash twice with 100 μl/well of wash buffer (assay buffer containing 1 mM MnCl2). Drain the plate and blot on paper towels.
10. Add 10 mg/ml of 4-Nitro phenyl phosphate to Substrate buffer (0.1M glycine, 1 mM ZnCl2, 1 mM MgCl2, pH 10.5). Add 100 μl/well and incubate for exactly 30 minutes at RT.
11. To stop the reaction, add 100 μl/well of 3N NaOH.
12. Read the 96-well plate in a Molecular Devices ELISA platereader at 405 nm. Analyze data with SoftMax software.
T1 sequence (P13612 34-1032): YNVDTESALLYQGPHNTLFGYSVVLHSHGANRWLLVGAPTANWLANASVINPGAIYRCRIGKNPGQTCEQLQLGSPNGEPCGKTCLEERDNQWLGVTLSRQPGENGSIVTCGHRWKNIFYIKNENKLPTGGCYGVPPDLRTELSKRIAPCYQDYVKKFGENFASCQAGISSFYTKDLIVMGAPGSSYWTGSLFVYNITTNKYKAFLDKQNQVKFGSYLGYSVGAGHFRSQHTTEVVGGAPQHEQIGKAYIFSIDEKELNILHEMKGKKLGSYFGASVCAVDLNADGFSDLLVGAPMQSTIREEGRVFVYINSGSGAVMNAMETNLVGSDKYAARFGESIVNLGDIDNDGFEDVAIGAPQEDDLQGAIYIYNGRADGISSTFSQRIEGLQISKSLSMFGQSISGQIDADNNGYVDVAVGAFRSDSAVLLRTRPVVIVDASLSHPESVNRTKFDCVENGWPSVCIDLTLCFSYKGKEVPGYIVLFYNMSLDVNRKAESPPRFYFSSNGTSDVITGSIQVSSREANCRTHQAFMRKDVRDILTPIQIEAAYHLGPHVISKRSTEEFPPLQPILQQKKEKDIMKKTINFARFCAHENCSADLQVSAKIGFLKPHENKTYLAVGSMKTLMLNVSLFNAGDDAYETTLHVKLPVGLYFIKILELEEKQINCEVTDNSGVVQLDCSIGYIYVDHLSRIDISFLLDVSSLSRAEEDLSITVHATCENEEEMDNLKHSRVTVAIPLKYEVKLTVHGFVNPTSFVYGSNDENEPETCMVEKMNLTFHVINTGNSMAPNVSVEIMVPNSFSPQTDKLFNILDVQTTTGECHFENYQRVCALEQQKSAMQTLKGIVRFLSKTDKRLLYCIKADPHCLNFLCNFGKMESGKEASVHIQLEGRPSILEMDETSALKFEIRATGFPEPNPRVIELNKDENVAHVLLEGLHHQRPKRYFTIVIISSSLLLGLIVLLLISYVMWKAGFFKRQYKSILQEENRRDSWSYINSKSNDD
T1 sequence (P05556 21-798): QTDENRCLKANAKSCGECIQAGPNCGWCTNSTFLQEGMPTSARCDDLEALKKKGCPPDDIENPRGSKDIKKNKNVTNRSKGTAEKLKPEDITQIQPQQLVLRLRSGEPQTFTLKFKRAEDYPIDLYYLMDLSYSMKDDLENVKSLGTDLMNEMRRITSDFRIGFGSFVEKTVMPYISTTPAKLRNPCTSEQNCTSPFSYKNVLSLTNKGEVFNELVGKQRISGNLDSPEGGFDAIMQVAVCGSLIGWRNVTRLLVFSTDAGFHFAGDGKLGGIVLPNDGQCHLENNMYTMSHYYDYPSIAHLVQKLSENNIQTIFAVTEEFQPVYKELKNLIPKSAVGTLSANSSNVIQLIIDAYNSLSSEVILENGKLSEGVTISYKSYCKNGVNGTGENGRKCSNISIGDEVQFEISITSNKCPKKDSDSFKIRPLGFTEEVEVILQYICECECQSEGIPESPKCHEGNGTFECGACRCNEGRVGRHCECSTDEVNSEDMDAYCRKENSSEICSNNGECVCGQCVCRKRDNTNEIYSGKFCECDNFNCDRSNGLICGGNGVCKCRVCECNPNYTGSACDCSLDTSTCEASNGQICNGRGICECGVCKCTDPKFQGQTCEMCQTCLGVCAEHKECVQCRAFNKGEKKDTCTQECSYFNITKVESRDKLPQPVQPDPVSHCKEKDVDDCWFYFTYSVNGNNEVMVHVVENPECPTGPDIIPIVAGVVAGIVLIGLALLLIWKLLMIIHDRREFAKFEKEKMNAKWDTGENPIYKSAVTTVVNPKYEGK
Take `Cc1ccccc1NC(=O)Nc1ccc(NC(=O)CN(CCC(=O)O)C(=O)CN(CCC(=O)O)C(=O)c2ccccc2)cc1` [AX38]: the IC50 turned out to be 60 nM.
The value for `Cc1ccccc1NC(=O)Nc1ccc(NC(=O)[C@@H]2CSCN2C(=O)CN(CCC(=O)O)C(=O)c2ccccc2)cc1` [AX39] was 60 nM.
The value for `Cc1ccccc1NC(=O)Nc1ccc(NC(=O)CN(CCC(C)C)C(=O)CN(CCC(=O)O)C(=O)CN2CCOCC2)cc1` [AX42] was 52 nM.
For the compound `Cc1c(C(=O)Nc2ccc3c(c2)C(=O)N(CCC(=O)O)CC(=O)N3C)c(=O)n(-c2ccccc2)n1C` [BX6], the IC50 turned out to be 15400 nM.
With `CN1C(=O)CN(CCC(=O)O)C(=O)c2cc(NC(=O)Cc3ccc(NC(=O)Cc4c[nH]c5ccccc45)cc3)ccc21` [BX11] the figure was 9050 nM.
For the compound `CN1C(=O)CN(CCC(=O)O)C(=O)c2cc(NC(=O)Cc3ccc(NC(=O)c4ccco4)cc3)ccc21` [BX12], the IC50 was 6100 nM.
With `CC1=NN(c2ccc(C(=O)Nc3ccc4c(c3)C(=O)N(CCC(=O)O)CC(=O)N4C)cc2)C(=O)C1` [BX13] the figure was 5860 nM; with `Cc1ccccc1NC(=O)Nc1ccc(CC(=O)Nc2ccc3c(c2)C(=O)N(CCCCC(=O)O)CC(=O)N3C)cc1` [BX15], 5130 nM.
With `Cc1ccccc1NC(=O)Nc1ccc(CC(=O)NCc2ccc3c(c2)C(=O)N(CCC(=O)O)CC(=O)N3C)cc1` [BX16] the figure was 5120 nM; with `Cc1ccccc1NC(=O)Nc1ccc(NC(=O)c2ccc3c(c2)C(=O)N(CCC(=O)O)CC(=O)N3C)cc1` [BX17], 977 nM; with `Cc1ccccc1NC(=O)Nc1ccc(CNC(=O)c2ccc3c(c2)CN(C)C(=O)C(CC(=O)O)N3)cc1` (stereo not drawn) [BX18], 4430 nM.
Take `Cc1ccccc1NC(=O)Nc1ccc(CC(=O)N(C)c2ccc3c(c2)C(=O)N(CCC(=O)O)CC(=O)N3C)cc1` [BX23]: the IC50 amounted to 3240 nM.
The value for `Cc1ccccc1NC(=O)Nc1ccc(C(=O)NCc2ccc3c(c2)C(=O)N(CCC(=O)O)CC(=O)N3C)cc1` [BX29] was 825 nM.
The value for `CN1C(=O)CN(CCC(=O)O)C(=O)c2cc(NC(=O)Cc3ccc(NC(=O)Nc4ccccc4)cc3)ccc21` [BX32] was 959 nM; that for `Cc1ccccc1NC(=O)Nc1ccc(NC(=O)Cc2ccc3c(c2)C(=O)N(CCC(=O)O)CC(=O)N3C)cc1` [BX33] was 886 nM.
With `CN1C(=O)CN(CCC(=O)O)C(=O)c2cc(NC(=O)Cc3ccc(NC(=O)Nc4ccccc4Cl)cc3)ccc21` [BX34] the figure was 723 nM; with `Cc1ccccc1NC(=O)Nc1ccc(NC(=O)c2ccc3c(c2)NC(CC(=O)O)C(=O)N(C)C3)cc1` (stereo not drawn) [BX36], 646 nM.
`Cc1ccccc1NC(=O)Nc1ccc(CC(=O)Nc2cc3c(cc2Cl)N(C)C(=O)CN(CCC(=O)O)C3=O)cc1` [BX37]: the IC50 is 643 nM.
The value for `Cc1ccccc1NC(=O)Nc1ccc(CC(=O)Nc2ccc3c(c2)C(=O)N(CCC(=O)O)C(C)C(=O)N3C)cc1` (stereo not drawn) [BX38] was 550 nM.
With `Cc1ccccc1NC(=O)Nc1ccc(CC(=O)Nc2ccc3c(c2)C(=O)N(CCC(=O)O)CC(=O)N3CCC(=O)O)cc1` [BX39] the figure was 480 nM; with `Cc1ccccc1NC(=O)Nc1ccc(CC(=O)Nc2ccc3c(c2)C(=O)N(CCC(=O)O)CC(=O)N3C2CCCCC2)cc1` [BX40], 438 nM; with `Cc1ccccc1NC(=O)Nc1ccc(CC(=O)Nc2ccc3c(c2)C(=O)N(C)CC(=O)N3CCC(=O)O)cc1` [BX42], 326 nM.
The value for `Cc1ccccc1NC(=O)Nc1ccc(CC(=O)Nc2ccc3c(c2)C(=O)N(CCC(=O)O)CC(=O)N3C2CCN(Cc3ccccc3)CC2)cc1` [BX43] was 273 nM; that for `Cc1ccccc1NC(=O)Nc1ccc(CC(=O)Nc2ccc3c(c2)C(=O)N(CCC(=O)O)CC(=O)N3C)cc1` [BX44] was 257 nM; that for `Cc1ccccc1NC(=O)Nc1ccc(CC(=O)Nc2ccc3c(c2)C(=O)N(CCC(=O)O)CC(=O)N3CC2CC2)cc1` [BX46] was 194 nM.
As to `Cc1ccccc1NC(=O)Nc1ccc(CC(=O)Nc2ccc3c(c2)C(=O)N(CCC(=O)O)CC(=O)N3Cc2ccc(F)cc2)cc1` [BX48], the IC50 was determined as 166 nM.
Turning to `CCC(C)N1C(=O)CN(CCC(=O)O)C(=O)c2cc(NC(=O)Cc3ccc(NC(=O)Nc4ccccc4C)cc3)ccc21` (stereo not drawn) [BX49], the IC50 stood at 163 nM.
With `Cc1ccccc1NC(=O)Nc1ccc(CC(=O)Nc2ccc3c(c2)C(=O)N(CC(C)C(=O)O)CC(=O)N3C)cc1` (stereo not drawn) [BX50] the figure was 52.3 nM.
The value for `Cc1ccccc1NC(=O)Nc1ccc(CC(=O)Nc2ccc3c(c2)C(=O)N(CCC(=O)O)CC(=O)N3CCc2ccccc2)cc1` [BX52] was 132 nM; that for `COCC(C)N1C(=O)CN(CCC(=O)O)C(=O)c2cc(NC(=O)Cc3ccc(NC(=O)Nc4ccccc4C)cc3)ccc21` (stereo not drawn) [BX54] was 128 nM.
With `Cc1ccccc1NC(=O)Nc1ccc(CC(=O)Nc2ccc3c(c2)C(=O)N(CCC(=O)O)CC(=O)N3CC2CCCO2)cc1` (stereo not drawn) [BX55] the figure was 120 nM.
Regarding `COC(=O)CN1C(=O)CN(CCC(=O)O)C(=O)c2cc(NC(=O)Cc3ccc(NC(=O)Nc4ccccc4C)cc3)ccc21` [BX57], the IC50 was 113 nM.
`Cc1ccccc1NC(=O)Nc1ccc(CC(=O)Nc2ccc3c(c2)C(=O)N(CCC(=O)O)CC(=O)N3Cc2ccccc2)cc1` [BX58]: the IC50 amounted to 116 nM.
Turning to `CCC(CC(=O)O)N1CC(=O)N(C)c2ccc(NC(=O)Cc3ccc(NC(=O)Nc4ccccc4C)cc3)cc2C1=O` (stereo not drawn) [BX60], the IC50 was determined as 103 nM.
For `COCCN1CC(=O)N(CCC(=O)O)Cc2cc(NC(=O)Cc3ccc(NC(=O)Nc4ccccc4C)cc3)ccc21` [BX61], the IC50 came out at 99.3 nM.
With `Cc1ccccc1NC(=O)Nc1ccc(CC(=O)Nc2ccc3c(c2)C(=O)N(C(CC(=O)O)C(=O)O)CC(=O)N3CCC(=O)O)cc1` (stereo not drawn) [BX62] the figure was 95 nM; with `COC(=O)C(C(C)C)N1C(=O)CN(CCC(=O)O)C(=O)c2cc(NC(=O)Cc3ccc(NC(=O)Nc4ccccc4C)cc3)ccc21` (stereo not drawn) [BX63], 75 nM; with `CN1C(=O)CN(CCC(=O)O)C(=O)c2cc(NC(=O)Cc3ccc(NC(=O)c4c[nH]c5ccccc45)cc3)ccc21` [BX64], 24 nM.
With `CN1Cc2ccc(NC(=O)Cc3ccc(NC(=O)Nc4ccccc4Br)cc3)cc2CN(CC(=O)O)C1=O` [BX65] the figure was 65 nM.
The value for `Cc1ccccc1NC(=O)Nc1ccc(CC(=O)Nc2ccc3c(c2)C(=O)N(C(C)CC(=O)O)CC(=O)N3C)cc1` (stereo not drawn) [BX67] was 62.5 nM; that for `COc1ccc(CCN2CC(=O)N(CCC(=O)O)Cc3cc(NC(=O)Cc4ccc(NC(=O)Nc5ccccc5C)cc4)ccc32)cc1OC` [BX68] was 35 nM.
With `Cc1ccccc1NC(=O)Nc1ccc(CC(=O)Nc2ccc3c(c2)CN(CCC(=O)O)C(=O)CN3CCN2CCOCC2)cc1` [BX69], the IC50 stood at 31.5 nM.
With `COCCCN1CC(=O)N(CCC(=O)O)Cc2cc(NC(=O)Cc3ccc(NC(=O)Nc4ccccc4C)cc3)ccc21` [BX70] the figure was 30.5 nM; with `Cc1ccccc1NC(=O)Nc1ccc(CC(=O)Nc2ccc3c(c2)CN(CCC(=O)O)C(=O)CN3CCC(=O)O)cc1` [BX71], 28.5 nM.
With `CCOC(=O)CCN1CC(=O)N(CCC(=O)O)Cc2cc(NC(=O)Cc3ccc(NC(=O)Nc4ccccc4C)cc3)ccc21` [BX72] the figure was 12.5 nM.
With `Cc1ccccc1NC(=O)Nc1ccc(NC(=O)C2CCCN2C(=O)CCCCC(=O)O)cc1` (stereo not drawn) [CX1] the figure was 1350 nM.
Consider `Cc1ccccc1NC(=O)Nc1ccc(NC(=O)[C@@H]2CCCN2C(=O)NCCCC(=O)O)cc1` [CX2], for which the IC50 worked out at 8940 nM.
As to `Cc1ccccc1NC(=O)Nc1ccc(NC(=O)[C@@H]2CCCN2C(=O)NCCC(=O)O)cc1` [CX7], the IC50 came out at 190 nM.
Turning to `Cc1ccccc1NC(=O)Nc1ccc(NC(=O)[C@@H]2CCCN2C(=O)CCCC(=O)O)cc1` [CX8], the IC50 stood at 480 nM.
The value for `Cc1ccccc1NC(=O)Nc1ccc(NC(=O)[C@@H]2CCCN2C(=O)CC[C@@H](C)CC(=O)O)cc1` [CX9] was 332 nM.
With `Cc1ccccc1NC(=O)Nc1ccc(NC(=O)[C@@H]2CCCN2C(=O)CC(C)CC(=O)O)cc1` (stereo partly drawn) [CX10] the figure was 258 nM.

Values taken from patent US6686350B1, “Cell adhesion inhibitors” (Biogen, Inc., priority 1996, dated 2004).
